Measurements as given in patent US20240216392A1, “METHODS OF TREAMENT” (Arena Pharmaceuticals, Inc., priority 2022, published 2024).
Where two headings read alike, the source gives them in different places.

Tests used:
[1] = Phase 1 multiple-dose study, plasma PK; assay type: in vivo, human; conditions: both sexes, human, plasma, oral; for Tmax: read-out: Plasma Tmax, median (minimum, maximum); for AUC: read-out: Plasma AUCtau, geometric mean (geometric CV %); for Cmax: read-out: Plasma Cmax, geometric mean (geometric CV %); for AUC(0-inf): read-out: plasma geometric mean AUC0-inf
Protocol: Subjects were enrolled to 1 of 2 dosage regimens. Subject enrollment was stratified by sex to ensure approximate sex balance in each cohort.
Morning doses were administered following a standard light breakfast (e.g., milk and cereal, toast, and fruit) on all days. TID dosing (three times a day) was approximately 8 hours apart. Subjects fasted from midnight onwards, until the morning breakfast each day. There was no fluid restriction during the study, but subjects should not have consumed excessive amounts of fluid on any day.
The Phase 1, open-label, multiple-dose study of Example 1 was conducted for Cohorts 1-3, 4A, and 4B.
Morning doses were administered following a standard light breakfast (e.g., milk and cereal, toast, and fruit) on all days. TID dosing (three times a day) was approximately 8 hours apart, and BID dosing (two times a day) was 12 hours apart. Subjects fasted from midnight onwards, until the morning breakfast each day. There was no fluid restriction during the study, but subjects were not to consume excessive amounts of fluid on any day.

[2] = for CSF AUCtau, geometric mean (geometric CV %) / CSF Cavg, geometric mean (geometric CV %) / CSF Cmax, geometric mean (geometric CV %) / CSF Ctrough, geometric mean (geometric CV %): Day 11
[3] = 12 mg, Day 9, Cohort 3 (12 mg BID)
[4] = 12 mg, Day 10, Cohort 2 (12 mg TID)
[5] = 12 mg, Day 10, Cohort 3 (12 mg BID)
[6] = 15 mg, Day 8, Cohort 4A (15 mg BID)
[7] = 15 mg, Day 9, Cohort 4A (15 mg BID)
[8] = 15 mg, Day 10, Cohort 4A (15 mg BID)
[9] = 18 mg, Day 8, Cohort 4B (18 mg BID)
[10] = 18 mg, Day 9, Cohort 4B (18 mg BID)
[11] = 18 mg, Day 10, Cohort 4B (18 mg BID)

In the case of `C[C@H]1CN2CCNCc3ccc(C(=O)NCC(F)F)c1c32` [Compound 1, (R)—N-(2,2-difluoroethyl)-7-methyl-1,2,3,4,6,7-hexahydro-[1,4]diazepino[6,7,1-hi]indole-8-carboxamide], the Tmax ([1]; 12 mg, Day 9, Cohort 2 (12 mg TID)) is reported as 0.92 h, the AUC [1, 3] is reported as 163 ng·h/mL and the Cmax [1, 3] is reported as 37.2 ng/mL. The half-life ([1]; 12 mg, Day 9, Cohort 3 (12 mg BID), read-out: Plasma T1/2, mean (SD) (converted)) was 4.58 h, the Tmax [1, 3] was 0.93 h and the AUC [1, 4] was 196 ng·h/mL. It also gave a Cmax [1, 4] of 39.8 ng/mL, a half-life ([1]; 12 mg, Day 10, Cohort 2 (12 mg TID), read-out: Plasma T1/2, mean (SD) (converted)) of 4.08 h and a Tmax [1, 4] of 1.02 h. For the same compound, the AUC [1, 5] was 154 ng·h/mL, the Cmax [1, 5] was 31.3 ng/mL and the half-life ([1]; 12 mg, Day 10, Cohort 3 (12 mg BID), read-out: Plasma T1/2, mean (SD) (converted)) was 3.54 h. The Tmax [1, 5] was 1 h, the AUC [1, 6] was 194 ng·h/mL and the Cmax [1, 6] was 44.8 ng/mL. The half-life ([1]; 15 mg, Day 8, Cohort 4A (15 mg BID), read-out: Plasma T1/2, mean (SD) (converted)) was 5.36 h, the Tmax [1, 6] was 0.55 h and the AUC [1, 7] was 208 ng·h/mL. The Cmax [1, 7] was 50.2 ng/mL, the half-life ([1]; 15 mg, Day 9, Cohort 4A (15 mg BID), read-out: Plasma T1/2, mean (SD) (converted)) was 5.51 h and the Tmax [1, 7] was 0.57 h. It also gave an AUC [1, 8] of 193 ng·h/mL, a Cmax [1, 8] of 40.9 ng/mL and a half-life ([1]; 15 mg, Day 10, Cohort 4A (15 mg BID), read-out: Plasma T1/2, mean (SD) (converted)) of 3.72 h. It also gave a Tmax [1, 8] of 1.06 h, an AUC [1, 9] of 230 ng·h/mL and a Cmax [1, 9] of 43.2 ng/mL. It also gave a half-life ([1]; 18 mg, Day 8, Cohort 4B (18 mg BID), read-out: Plasma T1/2, mean (SD) (converted)) of 5.51 h, a Tmax [1, 9] of 0.99 h and an AUC [1, 10] of 242 ng·h/mL. For the same compound, the Cmax [1, 10] was 47.7 ng/mL, the half-life ([1]; 18 mg, Day 9, Cohort 4B (18 mg BID), read-out: Plasma T1/2, mean (SD) (converted)) was 4.3 h and the Tmax [1, 10] was 0.5 h. It also gave an AUC [1, 11] of 224 ng·h/mL, a Cmax [1, 11] of 53 ng/mL and a half-life ([1]; 18 mg, Day 10, Cohort 4B (18 mg BID), read-out: Plasma T1/2, mean (SD) (converted)) of 3.51 h. It also gave a Tmax [1, 11] of 1 h, a half-life ([1]; steady state, read-out: half-life at steady state (converted)) of ~5 h and an AUC(0-inf) ([1]; Day 1, single 3 mg dose, Cohort 1) of 21.3 ng·h/mL. The AUC(0-inf) ([1]; Day 1, single 6 mg dose, Cohorts 2, 3, 4A, 4B) was 36.5 to 51.9 ng·h/mL, the “CSF concentrations exceeding the relevant Ki for 5-HT2C agonism” value ([2]; Cohort 2 (12 mg TID) and Cohort 4B (18 mg BID)) was ~2 fold and the “CSF AUCtau, geometric mean (geometric CV %)” value (from here on “CSF AUCtau … (geometric CV %)”) ([2]; Cohort 1 (6 mg TID)) was 72.07 (25.7) h*ng/mL. The “CSF Cavg, geometric mean (geometric CV %)” value (“CSF Cavg … (geometric CV %)” below) ([2]; Cohort 1 (6 mg TID)) was 9.261 (2.2660) ng/mL, the “CSF Cmax, geometric mean (geometric CV %)” value (“CSF Cmax … (geometric CV %)” for short) ([2]; Cohort 1 (6 mg TID)) was 11.88 (28.1) ng/mL and the “CSF Ctrough, geometric mean (geometric CV %)” value (from here on “CSF Ctrough … (geometric CV %)”) ([2]; Cohort 1 (6 mg TID)) was 6.524 (1.8619) ng/mL. For the same compound, the “CSF AUCtau … (geometric CV %)” value ([2]; Cohort 2 (12 mg TID)) was 167.4 (60.3) h*ng/mL, the “CSF Cavg … (geometric CV %)” value ([2]; Cohort 2 (12 mg TID)) was 24.61 (18.535) ng/mL and the “CSF Cmax … (geometric CV %)” value ([2]; Cohort 2 (12 mg TID)) was 26.21 (57.4) ng/mL. For the same compound, the “CSF Ctrough … (geometric CV %)” value ([2]; Cohort 2 (12 mg TID)) was 18.69 (12.398) ng/mL, the “CSF AUCtau … (geometric CV %)” value ([2]; Cohort 3 (12 mg BID)) was 157.9 (34.0) h*ng/mL and the “CSF Cavg … (geometric CV %)” value ([2]; Cohort 3 (12 mg BID)) was 13.76 (4.0021) ng/mL. The “CSF Cmax … (geometric CV %)” value ([2]; Cohort 3 (12 mg BID)) was 21.34 (33.5) ng/mL, the “CSF Ctrough … (geometric CV %)” value ([2]; Cohort 3 (12 mg BID)) was 7.027 (3.2364) ng/mL and the “CSF AUCtau … (geometric CV %)” value ([2]; Cohort 4A (15 mg BID)) was 171.2 (25.4) h*ng/mL. For the same compound, the “CSF Cavg … (geometric CV %)” value ([2]; Cohort 4A (15 mg BID)) was 14.63 (3.7448) ng/mL, the “CSF Cmax … (geometric CV %)” value ([2]; Cohort 4A (15 mg BID)) was 24.27 (32.3) ng/mL and the “CSF Ctrough … (geometric CV %)” value ([2]; Cohort 4A (15 mg BID)) was 6.512 (1.3508) ng/mL. The “CSF AUCtau … (geometric CV %)” value ([2]; Cohort 4B (18 mg BID)) was 202.5 (30.1) h*ng/mL, the “CSF Cavg … (geometric CV %)” value ([2]; Cohort 4B (18 mg BID)) was 17.51 (5.7327) ng/mL and the “CSF Cmax … (geometric CV %)” value ([2]; Cohort 4B (18 mg BID)) was 30.05 (20.9) ng/mL. The “CSF Ctrough … (geometric CV %)” value ([2]; Cohort 4B (18 mg BID)) was 7.700 (3.5802) ng/mL.
